Data taken from patent US5633277A, “Sulfonamide aminomethylene derivatives as immunosuppressants” (Miles Inc., priority 1995, dated 1997).
pIC50: −log10 of the molar value. Several values for one entry are separate records, joined by “and”; a condition that tells them apart may be missing. Identical values can stand only once.

Columns and labels:
NF-AT = NF-AT Inhibition Assay (NF-AT directed β-galactosidase expression in stimulated FGL-5 cells); type: cell-based; conditions: phorbol ester and ionomycin stimulated, 16-18 hours
Procedure: Stimulation of T-cells leads to the appearance of several transcription factors, including one designated "NF-AT". These factors are involved in regulation of gene expression required for immunologic activation. Some of these transcription factors appear to have functions in a wide variety of cell types. By contrast, NF-AT is found primarily in T-cells and its role is restricted to early gene activation.
Inhibition of NF-AT activity is measured using FGL-5 cells. FGL-5 is a cloned line of stably transfected Jurkat T-cells that contain a construct in which three tandem copies of the NF-AT DNA binding site direct transcription of the lacZ gene, encoding β-galactosidase (Fiering et al., 1990, Genes & Development 4:1823). When these cells are stimulated with phorbol esters which activate protein kinase C and calcium ionophore to raise the intracellular calcium concentration, transcriptionally active NF-AT is produced. In T-cells, this normally leads to the expression of IL-2, T-cell growth factor. However, in FGL-5 cells NF-AT activation leads to the production of β-galactosidase which can be detected using an appropriate substrate.
NF-AT Inhibition Assay Directed β-Galactosidase Expression
This assay was performed essentially as described (Bierer et al., 1990, Proc. Natl. Acad. Sci. 87:9231). FGL-5 cells were maintained in medium consisting of RPMI-1640 with 10% FBS, 2 mM L-glutamine, 1% Penicillin- Streptomycin and 15 mM HEPES buffer. The assays were done with exponentially growing cells whose density was not greater than 0.5 million cells/ml. The cells were resuspended to 3 million cells/ml in medium and 0. 1 mi was added to wells of a 96-well plate.
The compounds of the present invention were dissolved in either ethanol or dimethylsulfoxide at 10 mM and 0.05 ml/well of various dilutions in medium were added to cells in duplicate wells. Treatment controls consisted of duplicate wells to which 0.05 ml/well of either medium, ethanol or dimethylsulfoxide was added. The ethanol and dimethyl sulfoxide were at the same concentration as was used for the compounds. Cells were incubated with compounds at room temperature for 10-15 minutes. Phorbol dibutyrate (Sigma) and Ionomycin (Calbiochem) were dissolved at 50 μg g/mi and 2 mM, respectively and stored at -70° C.
FGL-5 cells were stimulated by diluting these reagents with medium to 200 ng/ml and 8 μM, respectively and adding of 0.05 ml/well. For unstimulated cell controls, 0.05 mi/well of medium was added to duplicate wells. The plates were incubated overnight (16-18 hours) at 37° C. in a humidified atmosphere of 5% CO2 and air. β-galactosidase activity was measured as the fluorescence generated by the cleavage of 4-methyl umbelliferyl-β-D-galactoside (Sigma) at the β-galactoside bond. After overnight incubation, the cells were centrifuged at 500×g for 3 minutes in the 96-well plates and washed 3 times with PBS. The cells were then resuspended in 0. 18 mi/well of reaction medium containing 100 mM sodium phosphate buffer, pH 7.0, 10 mM potassium chloride, 1 mM magnesium sulfate, 0.1% Triton X-100 (Pierce, Rockford, Ill.), and 0.5 mM 4-methylumbelliferyl-β-D- galactoside.
The fluorescence at 460 nm using 355 nm excitation was measured at intervals over 1-2 hours (during which fluorescence increased linearly with time) with a LS50 Luminescence Spectrometer (Perkin Elmer).
The percent inhibition by each concentration of the compounds was calculated as: [formula]
The values of the concentration of compounds required for 50% inhibition (IC50) were determined by linear regression analysis of the percent inhibition at various compound concentrations.

[1] = test system: Lewis rats sensitized with Complete Freund's adjuvant; assay: Adjuvant Arthritis Model in the Rat; type: in vivo; conditions: uninjected hind paw, day 0 to day 16, 10 mg/kg/dose i.p.
Text: Rats sensitized to mycobacterial antigens in Complete Freund's Adjuvant can develop a rapidly destructive adjuvant arthritis. Adjuvant arthritis appears to be an autoimmune disease. Thus, T lymphocytes from immunized donors can transfer the disease to naive recipients (Pearson and Wood, 1964, J. Exp. Med. 120:547.) and susceptibility is controlled, at least in part, by class II MHC genes (Batisto, et al. 1982, Arthritis Rheum. 25:1194).
Adjuvant Arthritis Model in the Rat
Complete Freund's adjuvant is made by supplementing extra heavy mineral oil with 10 mg/ml heat killed Mycobacterium butyricum (Difco Laboratories, Detroit, Mich.). Lewis rats (Charles Rivers, Willmington, Mass.) are given a 0. 1 ml injection of adjuvant (1 mg/animal mycobacterium) subcutaneously into the right hind footpad. In the injected foot, an acute inflammatory reaction occurs which is characterized by erythema, edema and a predominantly neutrophilic cell infiltrate. This is followed by edema in the uninjected contralateral foot by days 10-12. This secondary response is accompanied by a predominantly mononuclear cell infiltrate, indicating the presence of cell-mediated immunity.
The immune response is quantitated by measuring the change in ankle diameter of the uninjected hind paw from day 0 to day 16 post sensitization. This is accomplished using a hand-held dial micrometer. […]

| Compound | pIC50 (NF-AT) | Δ Ankle Diameter [1] [mm] | % Inhibition (of ankle swelling) ([1]; vs vehicle control) [%] |
| --- | --- | --- | --- |
| CC(C)C[C@@H](CN1CCC[C@H]1C(=O)NCCCCc1ccccc1)NS(=O)(=O)CC12CCC(CC1=O)C2(C)C (single isomer, unassigned) [Example 7] | < 4.82 | – | – |
| CC(C)C[C@@H](CN1CCC[C@H]1C(=O)NCCCCc1ccccc1)NS(C)(=O)=O [Example 1, 1-[2-(S)-Methanesulfonylamino-4-methylpentyl]-L-proline 4-Phenylbutylamide] | ≥ 4.96 and 5.05 | 1.6 ± 0.6 | 51 |
| Cc1ccc(S(=O)(=O)N[C@@H](CC(C)C)CN2CCC[C@H]2C(=O)NCCCCc2ccccc2)cc1 [Example 2, 1-[2-(S)-(Toluene-4-sulfonylamino)-4-methylpentyl]-L-proline 4-Phenylbutylamide] | 4.57 | – | – |
| CC(C)C[C@@H](CN1CCC[C@H]1C(=O)NCCCCc1ccccc1)NS(=O)(=O)c1cccc2cccnc12 [Example 3, 1-[2-(S)-(Quinoline-8-sulfonylamino)-4-methylpentyl]-L-proline 4-Phenylbutylamide] | ≥ 4.96 and 4.96 | – | – |
| CC(=O)Nc1nc(C)c(S(=O)(=O)N[C@@H](CC(C)C)CN2CCC[C@H]2C(=O)NCCCCc2ccccc2)s1 [Example 4, 1-[2-(S)-(2-Acetylamino-4-methyl-S-thiazolesulfonylamino)-4-methylpentyl]-L -proline 4-Phenylbutylamide] | 4.62 | – | – |
| CC(C)C[C@@H](CN1CCC[C@H]1C(=O)NCCCCc1ccccc1)NS(=O)(=O)c1cccs1 [Example 5, 1-[2-(S)-(Thiophene-2-sulfonylamino)-4-methylpentyl]-L-proline 4-Phenylbutylamide] | 4.62 | – | – |
| CC(C)C[C@@H](CN1CCC[C@H]1C(=O)NCCCCc1ccccc1)NS(=O)(=O)/C=C/c1ccccc1 [Example 6, 1-[2-(S)-(2-phenyl-ethenesulfonylamino)-4-methylpentyl]-L-proline 4-Phenylbutylamtde] | < 4.82 | – | – |
| CC(C)C[C@@H](CN1CCC[C@H]1C(=O)NCCCCc1ccccc1)NS(=O)(=O)c1ccc(-c2ccon2)s1 [Example 8, 1-[2-(S)-(5 - [Isoxazol-25-yl]-thiophene-2-sulfonylamino)-4-methylpentyl]-L-proline 4-Phenylbutylamide] | < 4.82 | – | – |
| CC(C)C[C@@H](CN1CCC[C@H]1C(=O)NCCCCc1ccccc1)NS(=O)(=O)c1c(C(C)C)cc(C(C)C)cc1C(C)C [Example 10, 1-[2-(S)-(2',4',6'-Triisopropylbenzenesulfonylamino)-4-methylpentyl]-L-proline 4-Phenylbutylamide] | < 4.82 | – | – |
| CC[C@H](C)[C@H](NC(=O)[C@@H]1CCCCN1C[C@@H](NS(C)(=O)=O)[C@@H](C)CC)C(=O)NCc1ccccc1 [Example 11] | < 4.82 | – | – |
